# According to patent publication US9617281B2, “Imidazo[2,1-b]thiazole derivatives, their preparation and use as medicaments” (LABORATORIOS DEL DR. ESTEVE S.A., priority 2012, dated 2017):
# Where a name gives a salt, the structure may show the parent alone.
# Target: σ1-receptor (Cavia porcellus (Guinea pig), UniProt Q60492)
# Assay: σ1-receptor binding assay with [3H]-(+)-pentazocine in guinea pig brain membranes
# Details: radioligand [3H]-(+)-pentazocine 5.0 nM, 150 min at 37° C.
# Protocol: Brain membrane preparation and binding assays for the σ1-receptor were performed as described (DeHaven-Hudkins, D. L., L. C. Fleissner, and F. Y. Ford-Rice, 1992, Characterization of the binding of [^3H](+)pentazocine to a recognition sites in guinea pig brain, Eur. J. Pharmacol. 227, 371-378) with some modifications. Guinea pig brains were homogenized in 10 vols. (w/v) of Tris-HCl 50 mM 0.32 M sucrose, pH 7.4, with a Kinematica Polytron PT 3000 at 15000 r.p.m. for 30 s. The homogenate was centrifuged at 1000 g for 10 min at 4° C. and the supernatants collected and centrifuged again at 48000 g for 15 min at 4° C. The pellet was resuspended in 10 volumes of Tris-HCl buffer (50 mM, pH 7.4), incubated at 37° C. for 30 min, and centrifuged at 48000 g for 20 min at 4° C. Following this, the pellet was re-suspended in fresh Tris-HCl buffer (50 mM, pH 7.4) and stored on ice until use.
# The radioligand used was [^3H]-(+)-pentazocine at 5.0 nM and the final volume was 200 μl. The incubation was initiated with the addition of 100 μl of membrane at a final tissue concentration of approximately 5 mg tissue net weight/mL and the incubation time was 150 m. at 37° C. After incubation, the membranes were collected onto pretreated glass fiber filterplate (MultiScreen-FC, Millipore), with polyethylenimine 0.1%. The filters were washed two times with 200 μl of washing buffer (50 mM Tris Cl, pH=7.4) and then 25 μl of Ecoscint H liquid scintillation cocktail were added. Microplates were allowed to set for several hours and then quantified by liquid scintillation spectrophotometry (1450 Microbeta, Wallac). Nonspecific binding was determined with 1 μM haloperidol.
# σ1-receptor, sequence (Q60492 whole entry): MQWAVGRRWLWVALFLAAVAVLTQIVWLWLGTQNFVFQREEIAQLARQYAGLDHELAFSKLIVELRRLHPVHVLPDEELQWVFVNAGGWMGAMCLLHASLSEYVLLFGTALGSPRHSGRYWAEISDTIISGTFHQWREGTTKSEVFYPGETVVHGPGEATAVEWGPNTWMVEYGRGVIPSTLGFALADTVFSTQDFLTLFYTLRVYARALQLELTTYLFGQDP
row,SMILES,Ki
1,"CN1CCN(Cc2cn3cc(-c4ccccc4)sc3n2)CC1 [Compound 7, 6-((4-methylpiperazin-1-yl)methyl)-2-phenylimidazo[2,1-b]thiazole maleate]",56 nM
2,"CN1CCN(Cc2cn3cc(-c4ccc(F)cc4)sc3n2)CC1 [Compound 13, 2-(4-fluorophenyl)-6-((4-methylpiperazin-1-yl)methyl)imidazo[2,1-b]thiazole maleate]",210 nM
3,"CN1CCN(Cc2cn3nc(-c4ccccc4)sc3n2)CC1 [Compound 11, 6-((4-methylpiperazin-1-yl)methyl)-2-phenylimidazo[2,1-b][1,3,4]thiadiazole maleate]",260 nM
4,"c1ccc(-c2cn3cc(COCCN4CCCC4)nc3s2)cc1 [Compound 10, 2-phenyl-6-((2-(pyrrolidin-1-yl)ethoxy)methyl)imidazo[2,1-b]thiazole maleate]",190 nM
5,"c1ccc(-c2nn3cc(COCCN4CCCCCC4)nc3s2)cc1 [Compound 4, 6-((2-(azepan-1-yl)ethoxy)methyl)-2-phenylimidazo[2,1-b][1,3,4]thiadiazole maleate]",168 nM

# The next lines start with the values.
row,Ki,SMILES
1,40 nM,"c1ccc(-c2cn3cc(COCCN4CCCCCC4)nc3s2)cc1 [Compound 9, 6-((2-(azepan-1-yl)ethoxy)methyl)-2-phenylimidazo[2,1-b]thiazole maleate]"
2,100 nM,"c1ccc(-c2cn3cc(CN4CCCCCC4)sc3n2)cc1 [Compound 12, 2-(azepan-1-ylmethyl)-6-phenylimidazo[2,1-b]thiazole maleate]"
3,16 nM,"c1ccc(-c2cn3cc(CN4CCCCCC4)nc3s2)cc1 [Compound 6, 6-(azepan-1-ylmethyl)-2-phenylimidazo[2,1-b]thiazole maleate]"
